According to ChEMBL document CHEMBL2074165, “Evaluation of an immortalized retinal endothelial cell line as an in vitro model for drug transport studies across the blood-retinal barrier” (Pharm Res, 2003):

Target: ATP-dependent translocase ABCB1 (Homo sapiens, UniProt P08183)
Assay: TP_TRANSPORTER: transepithelial transport (basal to apical) of AGN 197075 at a concentration of 10 uM in MDR1-expressing MDCK cells
Assay type: functional, cell-based
Settings: dog

Sequence of ATP-dependent translocase ABCB1 (P08183 whole entry): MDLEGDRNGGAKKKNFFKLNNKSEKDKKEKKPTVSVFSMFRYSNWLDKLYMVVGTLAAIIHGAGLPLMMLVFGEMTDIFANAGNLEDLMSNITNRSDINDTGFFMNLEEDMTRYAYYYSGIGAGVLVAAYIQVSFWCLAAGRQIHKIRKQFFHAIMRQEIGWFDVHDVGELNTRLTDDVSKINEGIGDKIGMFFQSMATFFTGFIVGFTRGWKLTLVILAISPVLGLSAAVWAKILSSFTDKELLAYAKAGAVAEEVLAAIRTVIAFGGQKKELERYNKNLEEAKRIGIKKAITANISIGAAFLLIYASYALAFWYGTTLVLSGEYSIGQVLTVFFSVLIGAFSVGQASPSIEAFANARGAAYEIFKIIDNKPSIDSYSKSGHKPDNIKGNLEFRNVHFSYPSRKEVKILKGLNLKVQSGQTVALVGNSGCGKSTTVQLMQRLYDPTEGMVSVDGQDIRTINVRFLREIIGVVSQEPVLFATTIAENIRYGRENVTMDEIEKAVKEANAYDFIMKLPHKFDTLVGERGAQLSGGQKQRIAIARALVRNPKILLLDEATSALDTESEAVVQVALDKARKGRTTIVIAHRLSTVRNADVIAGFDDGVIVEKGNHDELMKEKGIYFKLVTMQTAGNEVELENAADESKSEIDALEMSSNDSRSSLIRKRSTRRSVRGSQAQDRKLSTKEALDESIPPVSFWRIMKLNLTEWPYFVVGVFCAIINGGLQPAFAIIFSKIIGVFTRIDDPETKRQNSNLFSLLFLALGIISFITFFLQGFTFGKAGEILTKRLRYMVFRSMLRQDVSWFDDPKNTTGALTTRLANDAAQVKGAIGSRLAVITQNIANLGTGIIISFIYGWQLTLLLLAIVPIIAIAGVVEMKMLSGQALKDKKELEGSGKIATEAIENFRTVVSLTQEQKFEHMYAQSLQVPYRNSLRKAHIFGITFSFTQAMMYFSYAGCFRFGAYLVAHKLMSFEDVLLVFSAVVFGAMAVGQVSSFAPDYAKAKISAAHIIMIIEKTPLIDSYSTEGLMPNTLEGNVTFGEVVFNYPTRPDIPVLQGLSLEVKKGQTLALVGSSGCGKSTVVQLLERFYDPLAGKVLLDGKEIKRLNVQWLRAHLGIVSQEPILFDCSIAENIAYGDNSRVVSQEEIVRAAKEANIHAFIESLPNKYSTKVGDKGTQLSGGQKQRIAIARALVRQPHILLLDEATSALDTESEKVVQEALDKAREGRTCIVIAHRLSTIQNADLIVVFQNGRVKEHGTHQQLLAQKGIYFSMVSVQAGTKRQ

Activity: substrate [+]
SMILES: OCCNC(=S)NCc1cccc(Cl)c1F
